These results are taken from patent publication US12433872B2, “Treatment of Acanthamoeba or Balamuthia trophozoites and/or cysts” (GEORGIA STATE UNIVERSITY RESEARCH FOUNDATION, INC., priority 2018, dated 2025).

Assay [1] has as its system B. mandrillaris. The note with it: previous in vitro testing, cited from earlier work; for effect against B. mandrillaris: in words.
Assay [2] concerns Acanthamoeba culbertsoni (ATCC30171) cysts. The experiment in a line: Encystation drug susceptibility / excystation viability assay, 30 day recovery, A. culbertsoni cysts. Conditions: ATCC30171, 720 h, read-out: A. culbertsoni 30 day MCC. The class given is cell-based. The procedure:
(§1) The trophozoites of Acanthamoeba were harvested by mechanical detachment and collected via centrifugation at 4000 rpm at 4° C. for 5 minutes. The trophozoites were washed in 10 mL of Neff's Encystment Media (NEM). NEM composition is 20 mM Tris-HCL [pH 8.8] (2.43 g/L), 100 mM KCL (7.46 g/L), 8 mM MgSO4 (962.96 mg/L), 0.4 mM CaCL2 58.81 mg/L) and 1 mM NaHCO3 (84.01 mg/L) (Neff et al. 1964). All reagents were bought from Sigma Aldrich. Centrifugation of the trophozoites was repeated to ensure any residual growth medium was removed. The pellet was resuspended in a final volume of 15 mL of NEM, cultured in 75 cm^2 corning tissue culture flasks and incubated vertically in a thermal shaker, shaken at 100 rpm at 37° C. for 72 hours to produce fully matured cysts. NEM was supplemented with 250 μg of penicillin/streptomycin. Fresh cysts were produced each time for any experimentation.
(§2) At 72 hours the cysts were harvested using a cell scraper and collected via centrifugation at 4000 rpm at 25° C. for 10 minutes. The cells were washed twice in 10 mL of HyClone™ water, Molecular Biology Grade, and centrifugation was repeated to ensure the removal of any residual NEM. The cell suspension was washed with 0.5% sodium dodecyl sulphate (SDS) to remove any remaining trophozoites and immature cysts. The fully mature cysts were further washed twice with 10 mL of HyClone™ water and 1% NEM, centrifugation was repeated to remove any residue of SDS. The concentration of mature cysts was determined using a haemocytometer and adjusted to 1×10^4 cysts/mL in NEM.
(§3) All test compounds were prepared as 5 mg/mL stock solutions in dimethylsulfoxide (DMSO). All compounds were diluted in NEM, serially diluted in 2-fold dilutions 6 or 11 times, yielding a screening concentration range of 1.56 μg/mL to 50 μg/mL or 48 ng/mL to 50 μg/mL with a final highest screening concentration of 1% DMSO.
(§4) Based on this, a strain specific test period and also a 30 day non-specific recovery time were considered. For the 30 day recovery period, the media was changed 5 times to ensure the contents of wells dis not evaporate and have an effect within the results of the assay.
(§5) 90 μL of 1×10^4 Cysts/ml and 10 μL of experimental compounds from the screening plates were produced according to the protocols above and combined into a Corning clear 96 well treated tissue culture plate. Control wells include cysts in non-drug treated, 1% DMSO, NEM (to be used for negative growth control), NEM Blank, PG blank and cysts in non-drug treated, 1% DMSO, PG (to excyst cells and to be used for positive growth control). The total well volume for all wells was 100 μL. The drug exposed plates were screened at 27° C. for 6 or 24 hours only. At the exposure time point the plates were centrifuged at 4000 rpm at 25° C. for 10 minutes and washed twice with phosphate-buffered saline (PBS) to remove any residual experimental compound.
(§6) Once the plate(s) underwent the Encystation drug susceptibility process, all wells except the negative growth control and NEM blank wells received PG growth medium. All plates were left to recover at 27° C. for the strain specific time period of 5, 9 or 11 days depending on the species of Acanthamoeba. At each of the strain specific time points the plates were removed from incubation and microscopically analysed (qualitatively) for the excystation process for the emergence of excysted viable trophozoites or residual cysts. The presence of excysted trophozoites indicated viable amoebae (non-cystistatic or cysticidal—no effect) and the absence of excystation was considered as cystistatic/cysticidal effects.

In assay [3] the test system is Acanthamoeba cysts. In words: 30 day cysticidal studies, species not given. The class given is cell-based. The note with it: for cysticidal activity over 30 day period: in words; for selectivity index (SI): text b496, A549 IC50 versus 30 day MCC. As for the experimental part: As cells were removed during the 5× media changes for the 30 day time point at concentrations of drugs that allowed excystation, only qualitative, microscopic analysis was performed.

The test system of assay [4] is Acanthamoeba castellanii (ATCC50370) cysts. In words: Encystation drug susceptibility / excystation viability assay, 30 day recovery, A. castellanii cysts. Conditions: ATCC50370, 720 h, read-out: A. castellanii 30 day MCC. The class given is cell-based. As for the experimental part:
as §1, §2, §3, §4, §5, §6

Assay [5] relates to Acanthamoeba castellanii trophozoites. In words: Activity against Acanthamoeba castellanii trophozoites. The format is cell-based.
Assay [6] relates to Acanthamoeba healyi cysts. The experiment in a line: Encystation drug susceptibility / excystation viability assay, 30 day recovery, A. healyi cysts. The class given is cell-based. Conditions: 720 h, read-out: A. healyi 30 day MCC. As for the experimental part: as §1, §2, §3, §4, §5, §6
The subject of assay [7] is A549 cells. In words: Toxicity to human A549 cells. The format is cell-based.
For assay [8], the system named is Balamuthia mandrillaris trophozoites. In words: Activity against Balamuthia mandrillaris trophozoites. The format is cell-based. The note with it: for IC50: Balamuthia mandrillaris. The procedure: Balamuthia mandrillaris trophozoites were thawed and grown in 10 ml of BM-3 medium. […] After autoclaving, complete BM-3 media was produced by the addition of 10% fetal bovine serum and 125 μg of penicillin/streptomycin antibiotics. The table describes all of the compounds and the activity against Balamuthia trophozoites compared to the activity for select Acanthamoeba trophozoites shown in Table 5.

Setting [9] is: minimum cysticidal concentration, no recovery up to 30 days.
Setting [10] is: read-out: A. cactellanii Trophozoite IC50.
The mark [11] stands for this setting: human A549 cells, read-out: A549 cell IC50.
Setting [12] is: trophozoites, n = 2, read-out: Balamuthia mandrillaris IC50.
Setting [13] is: trophozoites, n = 2, Table 6, read-out: Acanthamoeba castellanii IC50.
Setting [14] is: read-out: Balamuthia mandrillaris IC50.
Setting [15] is: read-out: Acanthamoeba castellanii IC50.
Where [16] appears, read: Homo sapiens, A549, read-out: A549 cell IC50.

Structures can show the parent of a compound that is named as a salt. Where two headings read alike, the source gives them in different places.

With `CC[C@H]1OC(=O)[C@H](C)[C@@H](O[C@H]2C[C@@](C)(OC)[C@@H](O)[C@H](C)O2)[C@H](C)[C@@H](O[C@@H]2O[C@H](C)C[C@H](N(C)C)[C@H]2O)[C@](C)(OC)C[C@@H](C)C(=O)[C@H](C)[C@@H](O)[C@]1(C)O` [clarithromycin], in assay [1], the “effect against B. mandrillaris” value is on record as “no effect”.

Turning to `C[C@@H]1[C@H](O)[C@@H](C)/C=C/C=C/C=C/C=C/C=C/C=C/C=C/[C@H](O[C@@H]2O[C@H](C)[C@@H](O)[C@H](N)[C@@H]2O)C[C@@H]2O[C@](O)(C[C@@H](O)C[C@@H](O)[C@H](O)CC[C@@H](O)C[C@@H](O)CC(=O)O[C@H]1C)C[C@H](O)[C@H]2C(=O)O` [amphotericin B], the “effect against B. mandrillaris” value in assay [1] is recorded as “marginal effects”.

For the compound `N=C(N)c1ccc(OCCCCCOc2ccc(C(=N)N)cc2)cc1` [pentamidine], the “concentration at which most effective drug against B. mandrillaris” value was 29.38 µM in assay [1] (same value in μM) and 10 µg/mL in assay [1].

Consider `CCCCC(CC)CNC(=N)NC(=N)NCCCCCCNC(=N)NC(=N)NCC(CC)CCCC` (stereo not drawn) [Alexidine HCL, alexidine, reference compound], for which the MCC in assay [2] (setting [9]) is 5370 nM; in assay [4] (setting [9]), 5.37 µM; in assay [6] (setting [9]), 5.37 µM. Moreover, the “cysticidal activity over 30 day period” value in assay [3] is on record as “shows cysticidal activity”. Moreover, the “selectivity index (SI)” value in assay [3] was 0.29. The IC50 in assay [5] (setting [10]) was 1710 nM; in assay [7] (setting [11]), 1.58 µM.

On to `N=C(NCCCCCCNC(=N)NC(=N)Nc1ccc(Cl)cc1)NC(=N)Nc1ccc(Cl)cc1` [Chlorhexidine, chlorhexidine, reference compound], for which the MCC in assay [2] (setting [9]) turned out to be 100000 nM; in assay [4] (setting [9]), 100 µM; in assay [6] (setting [9]), 100 µM. For the same compound, the “cysticidal activity over 30 day period” value in assay [3] is “little cysticidal activity”. Also, the “selectivity index (SI)” value in assay [3] is listed as 0.03. The IC50 in assay [5] (setting [10]) amounted to 1010 nM; in assay [7] (setting [11]) it was 3.08 µM.

Regarding `COc1cc(Oc2ccc(-c3nc4ccc(C(=N)NC(C)C)cc4[nH]3)cc2F)ccc1-c1nc2ccc(C(=N)NC(C)C)cc2[nH]1` [K, 2-(3-Fluoro-4-(4-(6-(N-isopropylcarbamimidoyl)-1H-benzo[d]imidazol-2-yl)-3-methoxyphenoxy)phenyl)-N-isopropyl-1H-benzo[d]imidazole-6-carboximidamide], the IC50 in assay [8] (setting [12]) was 140 nM; in assay [5] (setting [13]), 1100 nM; in assay [7] (setting [11]), 4.03 µM. The values for the MCC in assay [2] (setting [9]), in assay [4] (setting [9]) and in assay [6] (setting [9]) were 7890 nM, 9.65 µM and 7.72 µM, respectively.

Consider `CC[C@H]1OC(=O)[C@H](C)[C@@H](O[C@H]2C[C@@](C)(OC)[C@@H](O)[C@H](C)O2)[C@H](C)[C@@H](O[C@@H]2O[C@H](C)C[C@H](N(C)C)[C@H]2O)[C@](C)(O)C[C@@H](C)CN(C)[C@H](C)[C@@H](O)[C@]1(C)O` [azithromycin], for which the “effect against B. mandrillaris” value in assay [1] is “no effect”.

With `CC(C)NC(=N)c1ccc2nc(-c3ccc(Oc4ccc(-c5nc6ccc(C(=N)NC(C)C)cc6[nH]5)c(Br)c4)c(Br)c3)[nH]c2c1` [Compound R, 2-(2-Bromo-4-(2-bromo-4-(6-(N-isopropylcarbamimidoyl)-1H-benzo[d]imidazol-2-yl)phenoxy)phenyl)-N-isopropyl-1H-benzo[d]imidazole-6-carboximidamide], the IC50 amounted to 200 nM in assay [8] (setting [12]), 550 nM in assay [5] (setting [13]) and 4.18 µM in assay [7] (setting [11]). The results for the MCC in assay [2] (setting [9]), in assay [4] (setting [9]) and in assay [6] (setting [9]) were 2660 nM, 2.66 µM and 3.56 µM, respectively.

Turning to `CC(C)NC(=N)c1ccc2nc(-c3ccc(Oc4ccc(-c5nc6ccc(C(=N)NC(C)C)cc6[nH]5)c(Br)c4)cc3F)[nH]c2c1` [Compound E, 2-(2-Bromo-4-(3-fluoro-4-(6-(N-isopropylcarbamimidoyl)-1H-benzo[d]imidazol-2-yl)phenoxy)phenyl)-N-isopropyl-1H-benzo[d]imidazole-6-carboximidamide], the IC50 in assay [8] (setting [14]) stood at 110 nM; in assay [5] (setting [10]), 220 nM; in assay [5] (setting [15]), 770 nM; in assay [7] (setting [16]) it was 3.79 µM. Further, the values for the MCC in assay [2], in assay [4] and in assay [6] were 1830 nM, 2.75 µM and 1.83 µM, respectively.

Consider `COc1cc(Oc2ccc(-c3nc4ccc(C(=N)NC(C)C)cc4[nH]3)c(Cl)c2)ccc1-c1nc2ccc(C(=N)NC(C)C)cc2[nH]1` [Compound S], for which the IC50 came to 60 nM in assay [8] (setting [12]), 2790 nM in assay [5] (setting [13]) and 2.95 µM in assay [7] (setting [11]). The MCC in assay [2] (setting [9]) came to 930 nM; in assay [4] (setting [9]), 2.81 µM; in assay [6] (setting [9]), 1.87 µM.

In the case of `CC(C)NC(=N)c1ccc2nc(-c3ccc(Oc4ccc(-c5nc6ccc(C(=N)NC(C)C)cc6[nH]5)c(Br)c4)cc3Br)[nH]c2c1` [Compound D, 2,2′-(Oxybis(2-bromo-4,1-phenylene))bis(N-isopropyl-1H-benzo[d]imidazole-6-carboximidamide)], the IC50 came out at 100 nM in assay [8] (setting [14]), 310 nM in assay [5] (setting [10]), 310 nM in assay [5] (setting [15]) and 4.17 µM in assay [7] (setting [16]). Moreover, the MCC in assay [2] was found to be 1270 nM; in assay [4] it was 3.4 µM; in assay [6] it was 3.4 µM.

Consider `CC(C)NC(=N)c1ccc2nc(-c3cc(F)c(Oc4ccc(-c5nc6ccc(C(=N)NC(C)C)cc6[nH]5)c(Cl)c4)c(F)c3)[nH]c2c1` [Compound B, 2-(2-Chloro-4-(2,6-difluoro-4-(6-(N-isopropylcarbamimidoyl)-1H-benzo[d]imidazol-2-yl)phenoxy)phenyl)-N-isopropyl-1H-benzo[d]imidazole-6-carboximidamide], for which the IC50 in assay [8] (setting [14]) amounted to 400 nM; in assay [5] (setting [10]), 540 nM; in assay [5] (setting [15]) it was 540 nM; in assay [7] (setting [16]), 17.1 µM. Further, the figures for the MCC in assay [2], in assay [4] and in assay [6] were 2880 nM, 9.6 µM and 3.84 µM, respectively.

`CC(C)NC(=N)c1ccc2nc(-c3ccc(Oc4ccc(-c5nc6ccc(C(=N)NC(C)C)cc6[nH]5)cc4F)cc3)[nH]c2c1` [Compound I, 2-(3-Fluoro-4-(4-(6-(N-isopropylcarbamimidoyl)-1H-benzo[d]imidazol-2-yl)phenoxy)phenyl)-N-isopropyl-1H-benzo[d]imidazole-6-carboximidamide]: in assay [8] (B. mandrillaris, versus pentamidine 29.38 μM), the “times more potent than pentamide as reported in Schuster et al.” value stood at 587.6. Moreover, the IC50 was 50 nM in assay [8] (read-out: IC50 against B. mandrillaris), 50 nM in assay [8] (setting [12]), 710 nM in assay [5] (setting [13]) and 3.46 µM in assay [7] (setting [11]). Moreover, the MCC in assay [2] (setting [9]) was determined as 8410 nM; in assay [4] (setting [9]) it was 4.2 µM; in assay [6] (setting [9]), 4.2 µM.
